Assays:
JAK3 enzyme [1] = molecular target: T1, JAK3 enzyme (Homo sapiens, UniProt P52333); experiment: JAK Caliper Enzyme Assay at 4 μM ATP; type: biochemical
T1 sequence (P52333 1-1124): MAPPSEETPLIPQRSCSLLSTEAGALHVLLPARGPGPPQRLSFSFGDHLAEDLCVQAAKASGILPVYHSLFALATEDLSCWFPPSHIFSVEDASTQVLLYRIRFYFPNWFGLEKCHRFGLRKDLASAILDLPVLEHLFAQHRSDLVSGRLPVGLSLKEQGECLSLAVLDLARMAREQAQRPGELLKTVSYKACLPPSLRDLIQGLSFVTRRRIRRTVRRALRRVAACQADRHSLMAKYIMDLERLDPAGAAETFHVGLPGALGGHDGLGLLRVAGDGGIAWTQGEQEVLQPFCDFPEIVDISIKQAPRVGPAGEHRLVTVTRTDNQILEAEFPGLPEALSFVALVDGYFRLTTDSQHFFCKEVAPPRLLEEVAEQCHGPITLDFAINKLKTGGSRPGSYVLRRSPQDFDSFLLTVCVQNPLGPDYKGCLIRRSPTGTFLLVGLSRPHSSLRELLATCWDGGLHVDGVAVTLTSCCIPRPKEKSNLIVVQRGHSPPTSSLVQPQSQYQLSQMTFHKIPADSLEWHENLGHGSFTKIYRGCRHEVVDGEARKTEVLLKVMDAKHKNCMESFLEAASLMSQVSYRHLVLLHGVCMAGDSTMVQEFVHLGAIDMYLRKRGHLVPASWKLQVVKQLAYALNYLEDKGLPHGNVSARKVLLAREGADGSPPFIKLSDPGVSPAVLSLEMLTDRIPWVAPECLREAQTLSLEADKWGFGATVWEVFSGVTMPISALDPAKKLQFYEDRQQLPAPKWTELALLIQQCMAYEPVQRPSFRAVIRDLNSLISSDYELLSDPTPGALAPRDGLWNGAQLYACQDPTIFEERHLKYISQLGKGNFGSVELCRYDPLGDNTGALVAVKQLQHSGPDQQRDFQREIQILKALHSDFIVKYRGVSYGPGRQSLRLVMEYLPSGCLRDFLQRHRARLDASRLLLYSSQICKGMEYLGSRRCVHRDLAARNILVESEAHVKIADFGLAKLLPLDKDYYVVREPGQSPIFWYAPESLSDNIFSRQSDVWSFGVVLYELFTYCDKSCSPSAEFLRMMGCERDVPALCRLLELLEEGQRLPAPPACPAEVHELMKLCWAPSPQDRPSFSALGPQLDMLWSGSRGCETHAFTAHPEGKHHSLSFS
Method in brief: (§1)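 Substrate conversion was kept within 20%-30% by adjusting enzyme and incubation for every preparation; peptide phosphorylation was quantified via on-chip mobility shift.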

JAK3 enzyme [2] = molecular target: T1, JAK3 enzyme; experiment: JAK Caliper Enzyme Assay at 1 mM ATP; type: biochemical
Method in brief: as §1

[3] = tested on: IL-15 induced P-STAT5 in human PBMC; experiment: PBMC IL-15 Induced P-STAT5; type: cell-based; conditions: human PBMC, IL-15 final 41 ng/mL; read-out: PBMC IL15_pSTAT5_IC50
Experimental: PBMC IL-15 Induced P-STAT5
Test compounds were serially diluted in DMSO, with further dilution of the compounds in RPMI 1640 medium (Invitrogen #72400) supplemented with 10 mM HEPES, pH 7.4, 1 mM sodium pyruvate, and Penicillin/Streptomycin (by adding 5 μL compound/DMSO in 120 μL Dulbecco's Phosphate-Buffered Saline (D-PBS, 1×), [DMSO]=4%, and mixing the solution by repeated pipetting, 6×). IL-15 was diluted to the concentration at 820 ng/mL in RPMI 1640 medium.
Frozen human PBMC (200-250 million cells/vial) was thawed at 37° C. The cells were transferred to 10 mL warm medium in a 50-mL conical tube, and centrifuged at 1,200 RPM at room temperature for 5 min. The supernatant was aspirated. Cells were suspended in 3 mL warm human plasma and incubated at 37° C. in a tissue culture incubator for 1.5 to 2 h. After adding 47 ml D-PBS (37° C.) to PBMC/FBS suspension, centrifuging at 1,200 RPM at room temperature for 5 min, and aspirating the supernatant, the cells were resuspended in 20 mL warm RPMI medium. Ninety μL of cell suspension were pipetted per well in a 96-well, deep-well, V-bottom plate, and the plate was incubated at 37° C. for 30 min. Five μL of compound were transferred to each well (final 0.2% DMSO), vortex gently and incubate at 37° C. for 15 min; 5 μL 4% DMSO/PBS were added to the control wells. After adding 5 μL 820 ng/mL of human IL-15 (final 41 ng/mL) to each well (5 μL PBS to the control wells), vortexing gently and incubating at 37° C. for 15 min, followed by 0.3 mL 1% paraformaldehyde/PBS (37° C.) to each well, and incubating the plate at room temperature for 15 min, the plates were centrifuged at 1,200 RPM (Beckman GS-6R or Sorvall Legend) at room temperature for 5 min, and the supernatant was aspirated using a 8-channel or 12-channel manifold. After adding 0.8 mL staining buffer per well, the plates were centrifuged at 1,200 RPM (Beckman GS-6R or Sorvall Legend) at room temperature for 5 min, and again the supernatant was aspirated using a 8-channel or 12-channel manifold. The plate was vortexed, and 0.35 mL 90% methanol/10% H2O (−20° C.) was added per well, and the plate incubated on ice for 20 min. After again adding 0.8 mL staining buffer per well, the plates were centrifuged at 1,200 RPM (Beckman GS-6R or Sorvall Legend) at room temperature for 5 min, and again the supernatant was aspirated using a 8-channel or 12-channel manifold, and then 0.8 mL Staining buffer was added per well. After once again adding 0.8 mL staining buffer per well, the plates were centrifuged at 1,200 RPM (Beckman GS-6R or Sorvall Legend) at room temperature for 5 min, and again the supernatant was aspirated using a 8-channel or 12-channel manifold. Then the plate was vortexed, and 250 μL/well of Alexa Fluor® 647 conjugated anti-STAT5 antibody ([…]; […]) was added, and the plate was incubated at 4° C. overnight in the dark. Samples of 250 μL/well were transferred to a 96-well U-bottom plate, and the FACS analysis was performed gating on total lymphocytes. Samples were analyzed using a BD Calibur™ or BD FACSCanto™ flow cytometer equipped with the BD High Throughput Sampler.

Row | Structure (SMILES) | IC50 (JAK3 enzyme [1]) [nM] | IC50 (JAK3 enzyme [2]) [nM] | IC50 [3] [nM]
1 | C=CC(=O)N1CCC(Oc2cnc3[nH]cc(C(=O)NCC4(O)CCCC(F)(F)C4)c3n2)CC1 (racemic) [Example 223, Racemic-2-[(1-acryloylpiperidin-4-yl)oxy]-N-[(3,3-difluoro-1-hydroxycyclohexyl)methyl]-5H-pyrrolo[2,3-b]pyrazine-7-carboxamide] | 4.13 | 344 | 3330
2 | C=CC(=O)N1CC[C@@H](Nc2cnc3[nH]cc(C(=O)NCC4(O)CCC(F)(F)CC4)c3n2)[C@@H](OC)C1 [Example 268] | 1.43 | 330 | > 10000
3 | C=CC(=O)N1C[C@@H](Nc2ncnc3[nH]ccc23)C[C@@H](C(=O)N(C)C)C1 (racemic) [Example 94] | 0.8 | 148 | 1080
4 | C=CC(=O)N1CCN(c2cnc3[nH]cc(C(=O)NCCOC)c3n2)CC1(C)C [Example 265, 2-(4-acryloyl-3,3-dimethylpiperazin-1-yl)-N-(2-methoxyethyl)-5H-pyrrolo[2,3-b]pyrazine-7-carboxamide] | 4.63 | 742 | 2060
5 | C=CC(=O)N1CCC(Oc2cnc3[nH]cc(C(=O)N[C@@H](C(C)C)[C@H](O)C(F)(F)F)c3n2)CC1 [Example 217, 2-[(1-acryloylpiperidin-4-yl)Oxy]-N-[(2S,3S)-1,1,1-trifluoro-2-hydroxy-4-methylpentan-3-yl]-5H-pyrrolo[2,3-b]pyrazine-7-carboxamide] | 1.97 | 272 | 2090
6 | C=CC(=O)N1CCN(c2cnc3[nH]cc(C(=O)NCC(C)(F)F)c3n2)CC1(C)C [Example 275, 2-(4-acryloyl-3,3-dimethylpiperazin-1-yl)-N-(2,2-difluoropropyl)-5H-pyrrolo[2,3-b]pyrazine-7-carboxamide] | 3.19 | 418 | 1030
7 | C=CC(=O)N1C[C@@H](Nc2ncnc3[nH]ccc23)CC[C@H]1CNC(C)=O (single isomer, unassigned) [Example 90] | 1.04 | 152 | 3220
8 | C=CC(=O)N1C[C@H](CC#N)C[C@H](Nc2ncnc3[nH]ccc23)C1 (single isomer, unassigned) [Example 107] | 11.8 | 1240 | 8260
9 | C=CC(=O)N1CCN(c2cnc3[nH]cc(C(=O)NC4CC(F)(F)C4)c3n2)C[C@@H]1CC(C)C [Example 273, 2-[(3S)-4-acryloyl-3-(2-methylpropyl)piperazin-1-yl]-N-(3,3-difluorocyclobutyl)-5H-pyrrolo[2,3-b]pyrazine-7-carboxamide] | 1.59 | 204 | 389
10 | C[C@H]1CC[C@@H](Nc2ncnc3[nH]ccc23)CN1C(=O)C1CO1 (mixture of isomers) [Example 132, Racemic-[(2S,5R)-2-methyl-5-(7H-pyrrolo[2,3-d]pyrimidin-4-ylamino)piperidin-1-yl](oxiran-2-yl)methanone] | 1.67 | 255 | 524

Second part, led by results:

Row | IC50 (JAK3 enzyme [1]) [nM] | IC50 (JAK3 enzyme [2]) [nM] | Structure (SMILES) | IC50 [3] [nM]
11 | 49.1 | 3060 | C=CC(=O)N1CC[C@H](Oc2cnc3[nH]cc(C(=O)NCC)c3n2)[C@@H](C)C1 (single isomer, unassigned) [Example 48] | 6690
12 | 0.681 | 43 | C=CC(=O)N1CCC(Nc2cnc3[nH]cc(C(=O)NCc4cc(C5CCC5)nn4C)c3n2)CC1 [Example 173, 2-[(1-acryloylpiperidin-4-yl)amino]-N-[(3-cyclobutyl-1-methyl-1H-pyrazol-5-yl)methyl]-5H-pyrrolo[2,3-b]pyrazine-7-carboxamide] | 1420
13 | 3.39 | 564 | C=CC(=O)N1CCC(C)(Oc2cnc3[nH]cc(C(=O)NCC)c3n2)CC1 [Example 61, 2-[(1-acryloyl-4-methylpiperidin-4-yl)oxy]-N-ethyl-5H-pyrrolo[2,3-b]pyrazine-7-carboxamide] | 2170
14 | 0.676 | 144 | C=CC(=O)N1CC[C@H](Nc2cnc3[nH]cc(C(=O)N[C@@H]4C[C@H]4C(F)(F)F)c3n2)[C@H](OC)C1 [Example 271, 2-{[(3R,4S)-1-acryloyl-3-methoxypiperidin-4-yl]amino}-N-[(1R,2R)-2-(trifluoromethyl)cyclopropyl]-5H-pyrrolo[2,3-b]pyrazine-7-carboxamide] | 1140
15 | 3.38 | 209 | C=CC(=O)N1CC[C@@H](Oc2cnc3[nH]cc(C(=O)NCC)c3n2)[C@H](C)C1 (racemic) [Example 46, Trans-racemic-2-{[1-acryloyl-3-methylpiperidin-4-yl]oxy}-N-ethyl-5H-pyrrolo[2,3-b]pyrazine-7-carboxamide] | 871
16 | 0.59 | 155 | C=CC(=O)N1CC[C@H](Nc2cnc3[nH]cc(C(=O)NC4CC(F)(F)C4)c3n2)[C@H](OC)C1 [Example 277, 2-{[(3R,4S)-1-acryloyl-3-methoxypiperidin-4-yl]amino}-N-(3,3-difluorocyclobutyl)-5H-pyrrolo[2,3-b]pyrazine-7-carboxamide] | 2320
17 | 2.12 | 367 | C=CC(=O)N1CC[C@H](Nc2cnc3[nH]cc(C(=O)NCC)c3n2)C[C@@H]1C (racemic) [Example 349, 2-(((2S,4S)-1-acryloyl-2-methylpiperidin-4-yl)amino)-N-ethyl-5H-pyrrolo[2,3-b]pyrazine-7-carboxamide] | 2930
18 | 0.526 | 63 | C=CC(=O)N1CCC(C)(Nc2cnc3[nH]cc(C(=O)NCC(C)CC(F)(F)F)c3n2)CC1 (racemic) [Example 270, Racemic-2-[(1-acryloyl-4-methylpiperidin-4-yl)amino]-N-(4,4,4-trifluoro-2-methylbutyl)-5H-pyrrolo[2,3-b]pyrazine-7-carboxamide] | 670

— patent US10703756B2, “Pyrrolo[2,3-D]pyrimidinyl, pyrrolo[2,3-B]pyrazinyl, pyrrolo[2,3-B]pyridinyl acrylamides and epoxides thereof” (Pfizer Inc., priority 2015, dated 2020)
